Measurements reported in article PMC12130451 (Scientific Reports, 2025).

How the values were obtained:
[1] = molecular target: AChE (Electrophorus electricus, UniProt O42275); assay: Enzyme kinetic study; assay type: biochemical, electric eel
[2] = molecular target: acetylcholinesterase (AChE, E.C. 3.1.1.7, Type V-S) (Electrophorus electricus, UniProt O42275); assay: AChE inhibition, modified Ellman method; assay type: biochemical, electric eel; conditions: read-out: % Inhibition at 50 µM, AChE, Mean ± SE
Chain of acetylcholinesterase (AChE, E.C. 3.1.1.7, Type V-S) (O42275 24-633): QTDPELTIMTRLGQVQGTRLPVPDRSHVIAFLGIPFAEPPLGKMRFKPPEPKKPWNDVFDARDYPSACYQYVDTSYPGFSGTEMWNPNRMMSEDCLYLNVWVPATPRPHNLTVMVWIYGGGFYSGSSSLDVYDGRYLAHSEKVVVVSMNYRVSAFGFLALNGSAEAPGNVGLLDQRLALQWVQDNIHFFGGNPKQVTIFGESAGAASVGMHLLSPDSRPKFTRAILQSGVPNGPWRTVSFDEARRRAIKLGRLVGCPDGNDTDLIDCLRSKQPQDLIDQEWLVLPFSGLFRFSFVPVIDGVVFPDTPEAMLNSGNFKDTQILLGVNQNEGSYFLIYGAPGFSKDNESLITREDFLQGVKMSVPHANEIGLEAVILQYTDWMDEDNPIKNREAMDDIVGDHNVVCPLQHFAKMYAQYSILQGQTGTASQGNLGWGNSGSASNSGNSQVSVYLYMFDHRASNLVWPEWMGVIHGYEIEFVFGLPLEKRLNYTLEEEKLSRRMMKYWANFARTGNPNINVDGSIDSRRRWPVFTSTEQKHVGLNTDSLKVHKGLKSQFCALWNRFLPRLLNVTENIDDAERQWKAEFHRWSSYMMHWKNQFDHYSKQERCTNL

Chain of AChE (O42275 24-633): as above

| SMILES | Ki [1] | secondary inhibition constant (Kis) ([1]; AChE, 1/Vmax vs inhibitor concentration) | type of inhibition ([1]; AChE, Lineweaver-Burk plot) | inhibition at 50 µM [2] |
| --- | --- | --- | --- | --- |
| CC(C)(C)OC(=O)NC1CCCN(C(=O)/C=C/c2ccccc2Cl)C1 (stereo not shown) [5b, tert-butyl (E)-(1-(3-(2-chlorophenyl)acryloyl)piperidin-3-yl)carbamate] | 10 µM | 36.16 µM | mix-type inhibition | – |
| COc1ccc(OC)c(/C=C/C(=O)N2CCCC(NC(=O)OC(C)(C)C)C2)c1 (stereo not shown) [5o, tert-butyl (E)-(1-(3-(2,5-dimethoxyphenyl)acryloyl)piperidin-3-yl)carbamate] | – | – | – | 44.1% |
